Measurements from ChEMBL document CHEMBL1152085, “Novel 3-deoxy-3-descladinosyl-6-O-methyl erythromycin a analogues. Synthesis and in vitro activity” (1997).
Converted amounts (≈) assume the structure as drawn.

Key:
Assay type in all cases: functional
Staphylococcus aureus [1] = test: Tested in vitro for minimum inhibitory concentration to produce antibacterial activity against Staphylococcus aureus CMX 642A in presence of erythromycin A
Escherichia coli [2] = test: Tested in vitro for minimum inhibitory concentration to produce antibacterial activity against Escherichia coli JUHL
Staphylococcus aureus [3] = test: Tested in vitro for minimum inhibitory concentration to produce antibacterial activity against Staphylococcus aureus 1775
Escherichia coli [4] = test: Tested in vitro for minimum inhibitory concentration to produce antibacterial activity against Escherichia coli JUHL in presence of erythromycin A
Staphylococcus aureus [5] = test: Tested in vitro for minimum inhibitory concentration to produce antibacterial activity against Staphylococcus aureus CMX 553
[6] = system: Staphylococcus epidermidis; test: Tested in vitro for minimum inhibitory concentration to produce antibacterial activity against Staphylococcus epidermidis 3519
Staphylococcus aureus [7] = test: Tested in vitro for minimum inhibitory concentration to produce antibacterial activity against Staphylococcus aureus NCTC-10649M
Staphylococcus aureus [8] = test: Tested in vitro for minimum inhibitory concentration to produce antibacterial activity against Staphylococcus aureus 1775 in presence of erythromycin A
Staphylococcus aureus [9] = test: Tested in vitro for minimum inhibitory concentration to produce antibacterial activity against Staphylococcus aureus CMX 553 in presence of erythromycin A
Streptococcus pyogenes [10] = test: Tested in vitro for minimum inhibitory concentration to produce antibacterial activity against Streptococcus pyogenes PIU 2548
Staphylococcus aureus [11] = test: Tested in vitro for minimum inhibitory concentration to produce antibacterial activity against Staphylococcus aureus NCTC-10649M in presence of erythromycin A
Streptococcus equinus [12] = test: Tested in vitro for minimum inhibitory concentration to produce antibacterial activity against Streptococcus bovis A-5169
Enterococcus faecium [13] = test: Tested in vitro for minimum inhibitory concentration to produce antibacterial activity against Enterococcus faecium ATCC 8043 in presence of erythromycin A
Staphylococcus aureus [14] = test: Tested in vitro for minimum inhibitory concentration to produce antibacterial activity against Staphylococcus aureus ATCC 6538P in presence of erythromycin A
Streptococcus agalactiae [15] = test: Tested in vitro for minimum inhibitory concentration to produce antibacterial activity against Streptococcus agalactiae CMX 508 in presence of erythromycin A
Streptococcus agalactiae [16] = test: Tested in vitro for minimum inhibitory concentration to produce antibacterial activity against Streptococcus agalactiae CMX 508
Streptococcus pyogenes [17] = test: Tested in vitro for minimum inhibitory concentration to produce antibacterial activity against Streptococcus pyogenes PIU 2548 in presence of erythromycin A
[18] = system: Staphylococcus epidermidis; test: Tested in vitro for minimum inhibitory concentration to produce antibacterial activity against Staphylococcus epidermidis 3519 in presence of erythromycin A
Staphylococcus aureus [19] = test: Tested in vitro for minimum inhibitory concentration to produce antibacterial activity against Staphylococcus aureus A5177
Staphylococcus aureus [20] = test: Tested in vitro for minimum inhibitory concentration to produce antibacterial activity against Staphylococcus aureus A-5278
Escherichia coli [21] = test: Tested in vitro for minimum inhibitory concentration to produce antibacterial activity against Escherichia coli SS in presence of erythromycin A
Staphylococcus aureus [22] = test: Tested in vitro for minimum inhibitory concentration to produce antibacterial activity against Staphylococcus aureus A5177 in presence of erythromycin A
Staphylococcus aureus [23] = test: Tested in vitro for minimum inhibitory concentration to produce antibacterial activity against Staphylococcus aureus A-5278 in presence of erythromycin A
Staphylococcus aureus [24] = test: Tested in vitro for minimum inhibitory concentration to produce antibacterial activity against Staphylococcus aureus ATCC 6538P
Staphylococcus aureus [25] = test: Tested in vitro for minimum inhibitory concentration to produce antibacterial activity against Staphylococcus aureus CMX 642A
Streptococcus pyogenes [26] = test: Tested in vitro for minimum inhibitory concentration to produce antibacterial activity against Streptococcus pyogenes EES61 in presence of erythromycin A
Streptococcus equinus [27] = test: Tested in vitro for minimum inhibitory concentration to produce antibacterial activity against Streptococcus bovis A-5169 in presence of erythromycin A
Enterococcus faecium [28] = test: Tested in vitro for minimum inhibitory concentration to produce antibacterial activity against Enterococcus faecium ATCC 8043
Escherichia coli [29] = test: Tested in vitro for minimum inhibitory concentration to produce antibacterial activity against Escherichia coli SS
Streptococcus pyogenes [30] = test: Tested in vitro for minimum inhibitory concentration to produce antibacterial activity against Streptococcus pyogenes EES61
Streptococcus pyogenes [31] = test: Tested in vitro for minimum inhibitory concentration to produce antibacterial activity against Streptococcus pyogenes 930 in presence of erythromycin A
Streptococcus pyogenes [32] = test: Tested in vitro for minimum inhibitory concentration to produce antibacterial activity against Streptococcus pyogenes 930

SMILES | MIC (Staphylococcus aureus [1]) [µg/mL] | MIC (Staphylococcus aureus [3]) [µg/mL] | MIC (Staphylococcus aureus [5]) [µg/mL] | MIC [6] [µg/mL] | MIC (Staphylococcus aureus [7]) [µg/mL] | MIC (Staphylococcus aureus [8]) [µg/mL] | MIC (Staphylococcus aureus [9]) [µg/mL] | MIC (Streptococcus pyogenes [10]) [µg/mL] | MIC (Staphylococcus aureus [11]) [µg/mL] | MIC (Streptococcus equinus [12]) [µg/mL] | MIC (Enterococcus faecium [13]) [µg/mL] | MIC (Staphylococcus aureus [14]) [µg/mL] | MIC (Streptococcus agalactiae [15]) [µg/mL] | MIC (Streptococcus agalactiae [16]) [µg/mL] | MIC (Streptococcus pyogenes [17]) [µg/mL] | MIC [18] [µg/mL] | MIC (Staphylococcus aureus [19]) [µg/mL] | MIC (Staphylococcus aureus [20]) [µg/mL] | MIC (Staphylococcus aureus [22]) [µg/mL] | MIC (Staphylococcus aureus [23]) [µg/mL] | also measured
CC[C@H]1OC(=O)[C@H](C)C[C@H](C)[C@@H](O[C@@H]2O[C@H](C)C[C@H](N(C)C)[C@H]2O)[C@](C)(OC)C[C@@H](C)C(=O)[C@H](C)[C@H]2N(CCCCc3ccccc3)C(=O)O[C@]12C | 0.39 | 50 (≈ 68.4 µM) | 1.56 (≈ 2.13 µM) | 1.56 (≈ 2.13 µM) | 1.56 (≈ 2.13 µM) | > 100 | 0.39 | 0.2 (≈ 0.274 µM) | 0.39 | 0.02 (≈ 0.0274 µM) | 0.1 | 0.39 | 0.02 | 0.1 (≈ 0.137 µM) | 6.2 | 0.39 | 1.56 (≈ 2.13 µM) | 50 (≈ 68.4 µM) | 25 | > 100 | MIC (Escherichia coli [2]): > 100 µg/mL; MIC (Escherichia coli [4]): 100 µg/mL; MIC (Escherichia coli [21]): 0.39 µg/mL; MIC (Staphylococcus aureus [24]): 1.56 µg/mL (≈ 2.13 µM); MIC (Staphylococcus aureus [25]): 1.56 µg/mL (≈ 2.13 µM); MIC (Streptococcus pyogenes [26]): 0.02 µg/mL; MIC (Streptococcus equinus [27]): 0.02 µg/mL; MIC (Enterococcus faecium [28]): 0.39 µg/mL (≈ 0.534 µM); MIC (Escherichia coli [29]): 1.56 µg/mL (≈ 2.13 µM); MIC (Streptococcus pyogenes [30]): 0.05 µg/mL (≈ 0.0684 µM)
CC[C@H]1OC(=O)[C@H](C)C(=O)[C@H](C)[C@@H](O[C@@H]2O[C@H](C)C[C@H](N(C)C)[C@H]2O)[C@](C)(OC)C[C@@H](C)C(=O)[C@H](C)[C@@H](O)[C@]1(C)O | 0.2 | > 100 | 0.2 (≈ 0.34 µM) | 0.39 (≈ 0.664 µM) | 0.1 (≈ 0.17 µM) | > 100 | 0.2 | 0.3 (≈ 0.51 µM) | 0.2 | 0.05 (≈ 0.0851 µM) | 0.05 | 0.2 | 0.05 | 0.2 (≈ 0.34 µM) | 3.1 | 0.2 | 0.2 (≈ 0.34 µM) | > 100 | 1.56 | > 100 | MIC (Escherichia coli [2]): > 100 µg/mL; MIC (Streptococcus pyogenes [31]): > 100 µg/mL; MIC (Escherichia coli [4]): 50 µg/mL; MIC (Escherichia coli [21]): 0.2 µg/mL; MIC (Staphylococcus aureus [24]): 0.2 µg/mL (≈ 0.34 µM); MIC (Staphylococcus aureus [25]): 0.39 µg/mL (≈ 0.664 µM); MIC (Streptococcus pyogenes [32]): > 100 µg/mL; MIC (Streptococcus pyogenes [26]): 0.05 µg/mL; MIC (Streptococcus equinus [27]): 0.02 µg/mL; MIC (Enterococcus faecium [28]): 0.2 µg/mL (≈ 0.34 µM); MIC (Escherichia coli [29]): 0.39 µg/mL (≈ 0.664 µM); MIC (Streptococcus pyogenes [30]): 0.1 µg/mL (≈ 0.17 µM)
CC[C@H]1OC(=O)[C@H](C)C[C@H](C)[C@@H](O[C@@H]2O[C@H](C)C[C@H](N(C)C)[C@H]2O)[C@](C)(OC)C[C@@H](C)C(=O)[C@H](C)[C@H]2N(CCc3ccc(Oc4ccccc4)cc3)C(=O)O[C@]12C | 0.39 | 25 (≈ 31.4 µM) | 6.2 (≈ 7.8 µM) | 12.5 (≈ 15.7 µM) | 6.2 (≈ 7.8 µM) | > 100 | 0.39 | 3.1 (≈ 3.9 µM) | 0.39 | 1.56 (≈ 1.96 µM) | 0.05 | 0.39 | 0.05 | 1.56 (≈ 1.96 µM) | 6.2 | 0.39 | 6.2 (≈ 7.8 µM) | 25 (≈ 31.4 µM) | 12.5 | > 100 | MIC (Streptococcus pyogenes [31]): > 100 µg/mL; MIC (Staphylococcus aureus [24]): 12.5 µg/mL (≈ 15.7 µM); MIC (Staphylococcus aureus [25]): 12.5 µg/mL (≈ 15.7 µM); MIC (Streptococcus pyogenes [32]): 6.2 µg/mL (≈ 7.8 µM); MIC (Streptococcus pyogenes [26]): 0.02 µg/mL; MIC (Streptococcus equinus [27]): 0.05 µg/mL; MIC (Enterococcus faecium [28]): 1.56 µg/mL (≈ 1.96 µM); MIC (Streptococcus pyogenes [30]): 1.56 µg/mL (≈ 1.96 µM)
CC[C@H]1OC(=O)[C@H](C)C[C@H](C)[C@@H](O[C@@H]2O[C@H](C)C[C@H](N(C)C)[C@H]2O)[C@](C)(OC)C[C@@H](C)C2=NCCN3C(=O)O[C@@]1(C)[C@H]3[C@H]2C | 0.39 | > 100 | 6.2 (≈ 9.94 µM) | 12.5 (≈ 20 µM) | 6.2 (≈ 9.94 µM) | > 100 | 0.39 | 0.78 (≈ 1.25 µM) | 0.39 | 0.39 (≈ 0.625 µM) | 0.05 | 0.39 | 0.05 | 0.39 (≈ 0.625 µM) | 6.2 | 0.39 | 6.2 (≈ 9.94 µM) | > 100 | 12.5 | > 100 | MIC (Streptococcus pyogenes [31]): > 100 µg/mL; MIC (Staphylococcus aureus [24]): 6.2 µg/mL (≈ 9.94 µM); MIC (Staphylococcus aureus [25]): 6.2 µg/mL (≈ 9.94 µM); MIC (Streptococcus pyogenes [32]): > 100 µg/mL; MIC (Streptococcus pyogenes [26]): 0.02 µg/mL; MIC (Streptococcus equinus [27]): 0.05 µg/mL; MIC (Enterococcus faecium [28]): 0.78 µg/mL (≈ 1.25 µM); MIC (Streptococcus pyogenes [30]): 0.39 µg/mL (≈ 0.625 µM)
